What follows are compounds tested against T1, c-kit (Homo sapiens, UniProt P10721) (assay: Inhibitory activity against c-kit autophosphorylation (MO7e cells, h-SCF)). Conditions: MO7e cells, 50 ng/ml h-SCF; read-out: c-kit IC50.
T1 construct: MO7e (human megakaryocytic leukemia cell line) which had been arrested for 20 hr; endogenous in cells; host or cells: MO7e human megakaryocytic leukemia cell line
T1 sequence (P10721 26-976): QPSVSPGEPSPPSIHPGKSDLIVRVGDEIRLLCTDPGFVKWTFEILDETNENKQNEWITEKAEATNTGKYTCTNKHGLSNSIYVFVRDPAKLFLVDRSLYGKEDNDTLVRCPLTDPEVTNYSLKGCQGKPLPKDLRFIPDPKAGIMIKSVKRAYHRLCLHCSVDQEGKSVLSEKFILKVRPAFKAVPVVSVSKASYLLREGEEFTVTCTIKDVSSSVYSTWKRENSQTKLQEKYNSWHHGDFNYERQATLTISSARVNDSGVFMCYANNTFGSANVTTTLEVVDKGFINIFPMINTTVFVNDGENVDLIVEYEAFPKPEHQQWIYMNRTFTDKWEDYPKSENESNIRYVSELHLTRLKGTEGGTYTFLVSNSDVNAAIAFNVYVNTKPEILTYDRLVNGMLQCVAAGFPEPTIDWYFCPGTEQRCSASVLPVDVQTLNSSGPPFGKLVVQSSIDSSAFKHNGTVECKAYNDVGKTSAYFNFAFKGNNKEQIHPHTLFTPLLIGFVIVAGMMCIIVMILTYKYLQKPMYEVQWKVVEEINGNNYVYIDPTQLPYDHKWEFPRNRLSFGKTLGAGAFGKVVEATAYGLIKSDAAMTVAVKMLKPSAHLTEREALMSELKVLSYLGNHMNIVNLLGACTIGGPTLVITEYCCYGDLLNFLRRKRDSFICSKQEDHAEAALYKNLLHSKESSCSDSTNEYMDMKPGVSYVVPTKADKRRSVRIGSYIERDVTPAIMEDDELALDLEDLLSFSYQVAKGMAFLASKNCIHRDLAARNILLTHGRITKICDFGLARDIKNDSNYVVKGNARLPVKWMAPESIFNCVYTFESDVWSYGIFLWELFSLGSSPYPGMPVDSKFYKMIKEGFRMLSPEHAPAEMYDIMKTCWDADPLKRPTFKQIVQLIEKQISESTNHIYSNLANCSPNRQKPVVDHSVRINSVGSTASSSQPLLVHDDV
Assay type: cell-based
Outline: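 Ligand-induced c-kit tyrosine phosphorylation is measured in MO7e cells that were quiesced 20 hr and preincubated with compound for 1 hr prior to a 5 min pulse of 50 ng/ml human SCF. Phospho-c-kit is detected by anti-phosphotyrosine capture ELISA, A450.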
Compound `COc1cc(Oc2ccnc3cc(OC)c(OC)cc23)ccc1NC(=O)NCCN1CCCCC1` [Example 681, N-{4-[(6,7-Dimethoxy-4-quinolyl)oxy]-2-methoxyphenyl}-N′-(2-piperidinoethyl)urea] has an IC50 of 0.27 µM. `COc1ccccc1NC(=O)COc1ccc(Oc2ccnc3cc(OC)c(OC)cc23)cc1` [Example 776, N1-(2-Methoxyphenyl)-2-{4-[(6,7-dimethoxy-4-quinolyl)oxy]phenoxy}acetamide] was tested, and the IC50 was 0.386 µM.

Same assay, conditions: MO7e cells, h-SCF 50 ng/ml; read-out: c-kit IC50
`C=CCCCOC(=O)Nc1ccc(Oc2ccnc3cc(OC)c(OC)cc23)c(C)c1C` [Example 268, 4-Pentenyl N-{4-[(6,7-dimethoxy-4-quinolyl)oxy]-2,3-dimethylphenyl}carbamate] gave an IC50 of 0.034 µM. With `CCCCOC(=O)Nc1ccc(Oc2ncnc3cc(OC)c(OC)cc23)cc1Cl` [Example 345, Butyl N-{2-chloro-4-[(6,7-dimethoxy-4-quinazolinyl)oxy]phenyl}carbamate] the IC50 was 0.123 µM. With `COc1cc2nccc(Oc3cc(C)c(NC(=O)SCc4ccc(C)cc4)cc3C)c2cc1OC` [Example 109, 4-Methylbenzyl {4-[(6,7-dimethoxy-4-quinolyl)oxy]-2,5-dimethylanilino}methanethioate] the IC50 was 0.412 µM. With `COc1cc2nccc(Oc3ccc(NC(=O)OCc4ccccc4)c(C)c3C)c2cc1OC` [Example 219, Benzyl N-{4-[(6,7-dimethoxy-4-quinolyl)oxy]-2,3-dimethylphenyl}carbamate] the IC50 was less than 0.03 µM. Work on `COc1cc2nccc(Oc3ccc(NC(=O)SCc4ccc(C)cc4)c(C)c3C)c2cc1OC` [Example 108, 4-Methylbenzyl {4-[(6,7-dimethoxy-4-quinolyl)oxy]-2,3-dimethylanilino}methanethioate] yielded an IC50 of 0.18 µM.

Same assay, conditions: MO7e cells, h-SCF stimulation; read-out: c-kit IC50
`COc1cc2nccc(Oc3ccc(NC(=S)NC(=O)c4ccc(F)cc4F)c(F)c3)c2cc1OC` [Example 1121, N-(2,4-Difluorobenzoyl)-N′-{4-[(6,7-dimethoxy-4-quinolyl)oxy]-2-fluorophenyl}thiourea] showed an IC50 of less than 0.03 µM. Work on `COc1cc2nccc(Oc3ccc(NCCOc4c(OC)cccc4OC)cc3)c2cc1OC` [Example 856, N-[2-(2,6-Dimethoxyphenoxy)ethyl]-N-{4-[(6,7-dimethoxy-4-quinolyl)oxy]phenyl}amine] yielded an IC50 of 0.255 µM. `COc1cc2nccc(Oc3ccc(NC(=S)NC(=O)c4cccc(C)c4)cc3C)c2cc1OC` [Example 1110, N-{4-[(6,7-Dimethoxy-4-quinolyl)oxy]-3-methylphenyl}-N′-(3-methylbenzoyl)thiourea] showed an IC50 of 0.113 µM. In the case of `COc1cc2ncnc(Oc3ccc(SCCOc4cccc(C)c4)cc3)c2cc1OC` [Example 850, 6,7-Dimethoxy-4-(4-{[2-(3-methylphenoxy)ethyl]sulfanyl}phenoxy)quinazoline], the IC50 is reported as 0.278 µM. Compound `COc1cc2nccc(Oc3ccc(NC(=S)NC(=O)c4cccc(Cl)c4)cc3F)c2cc1OC` [Example 943, N-(3-Chlorobenzoyl)-N′-{4-[(6,7-dimethoxy-4-quinolyl)oxy]-3-fluorophenyl}thiourea] has an IC50 of 0.136 µM. Work on `COc1cc2nccc(Oc3ccc(NC(=S)NC(=O)c4ccc(Cl)cc4)cc3)c2cc1OC` [Example 960, N-(4-Chlorobenzoyl)-N′-{4-[(6,7-dimethoxy-4-quinolyl)oxy]phenyl}thiourea] yielded an IC50 of 0.629 µM. For `COc1cc2nccc(Oc3ccc(NC(=S)NC(=O)c4cccc(Br)c4)c(F)c3)c2cc1OC` [Example 940, N-(3-Bromobenzoyl)-N′-{4-[(6,7-dimethoxy-4-quinolyl)oxy]-2-fluorophenyl}thiourea], the IC50 was 0.292 µM. In the case of `COc1ccc(C(=O)NC(=S)Nc2ccc(Oc3ccnc4cc(OC)c(OC)cc34)cc2)cc1OC` [Example 1010, N-(3,4-Dimethoxybenzoyl)-N′-{4-[(6,7-dimethoxy-4-quinolyl)oxy]phenyl}thiourea], the IC50 is reported as 0.078 µM. Work on `COc1cc2nccc(Oc3ccc(NC(=S)NC(=O)c4ccsc4)cc3)c2cc1OC` [Example 1034, N-{4-[(6,7-Dimethoxy-4-quinolyl)oxy]phenyl}-N′-(3-thienylcarbonyl)thiourea] yielded an IC50 of 0.378 µM. `COc1cc2nccc(Oc3ccc(SCCOc4ccc(Cl)cc4Cl)cc3)c2cc1OC` [Example 825, 4-(4-{[2-(2,4-Dichlorophenoxy)ethyl]sulfanyl}phenoxy)-6,7-dimethoxyquinoline] was tested, and the IC50 was 0.333 µM. `COc1cc2nccc(Oc3ccc(NC(=S)NC(=O)C4CC4)cc3F)c2cc1OC` [Example 1056, N-Cyclopropylcarbonyl-N′-{4-[(6,7-dimethoxy-4-quinolyl)oxy]-3-fluorophenyl}thiourea] gave an IC50 of 0.932 µM. `COc1cc2nccc(Oc3ccc(NC(=S)NC(=O)c4ccccc4Br)cc3)c2cc1OC` [Example 900, N-(2-Bromobenzoyl)-N′-{4-[(6,7-dimethoxy-4-quinolyl)oxy]phenyl}thiourea] showed an IC50 of 0.372 µM. `COc1cc2nccc(Oc3ccc(SCCOc4ccccc4C(C)C)cc3)c2cc1OC` [Example 815, 4-(4-{[2-(2-Isopropylphenoxy)ethyl]sulfanyl}phenoxy)-6,7-dimethoxyquinoline] was tested, and the IC50 was 0.18 µM. `COc1cc2nccc(Oc3ccc(SCCOc4ccc(C)c(C)c4)cc3)c2cc1OC` [Example 827, 4-(4-{[2-(3,4-Dimethylphenoxy)ethyl]sulfanyl}phenoxy)-6,7-dimethoxyquinoline] gave an IC50 of 0.175 µM. In the case of `COc1cc2ncnc(Oc3ccc(NCCOc4ccccc4C)cc3)c2cc1OC` [Example 862, N-{4-[(6,7-Dimethoxy-4-quinazolinyl)oxy]phenyl}-N-[2-(2-methylphenoxy)ethyl]amine], the IC50 is reported as 0.933 µM. For `COc1cc2nccc(Oc3ccc(NC(=S)NC(=O)CCC4CCCC4)c(F)c3)c2cc1OC` [Example 1027, N-(3-Cyclopentylpropanoyl)-N′-{4-[(6,7-dimethoxy-4-quinolyl)oxy]-2-fluorophenyl}thiourea], the IC50 was 0.161 µM. In the case of `COc1cc2nccc(Oc3ccc(NC(=S)NC(=O)c4ccccc4C(F)(F)F)cc3)c2cc1OC` [Example 902, N-{4-[(6,7-Dimethoxy-4-quinolyl)oxy]phenyl}-N′-[2-(trifluoromethyl)benzoyl]thiourea], the IC50 is reported as 0.299 µM. In the case of `COc1cc2nccc(Oc3ccc(SCCOc4ccccc4C)cc3)c2cc1OC` [Example 817, 6,7-Dimethoxy-4-(4-{[2-(2-methylphenoxy)ethyl]sulfanyl}phenoxy)quinoline], the IC50 is reported as 0.195 µM. For `COc1cc2ncnc(Oc3ccc(NC(=S)NC(=O)c4ccccc4Cl)cc3Cl)c2cc1OC` [Example 920, N-(2-Chlorobenzoyl)-N′-{3-chloro-4-[(6,7-dimethoxy-4-quinazolinyl)oxy]phenyl}thiourea], the IC50 was 0.448 µM. Work on `COc1cc2nccc(Oc3ccc(NC(=S)NC(=O)c4cccc(C)c4)cc3F)c2cc1OC` [Example 941, N-{4-[(6,7-Dimethoxy-4-quinolyl)oxy]-3-fluorophenyl}-N′-(3-methylbenzoyl)thiourea] yielded an IC50 of 0.145 µM.

Same assay, conditions: Mo7e, figure in parentheses in −( ); at 1000 nM
In the case of `COc1cc2nccc(Oc3ccc(NC(=S)NC(=O)c4ccc(Br)cc4)cc3F)c2cc1OC` [Example 973, N-(4-Bromobenzoyl)-N′-{4-[(6,7-dimethoxy-4-quinolyl)oxy]-3-fluorophenyl}thiourea], the inhibition at 1 µM is reported as 0%. In the case of `COc1cc2nccc(Oc3ccc([S+]([O-])CCOc4ccc(Cl)cc4Cl)cc3)c2cc1OC` (stereo not drawn) [Example 840, [2-(2,4-Dichlorophenoxy)ethyl]{4-[(6,7-dimethoxy-4-quinolyl)oxy]phenyl} sulfoxide], the inhibition at 1 µM is reported as 14%. `COc1cc2nccc(Oc3ccc(NC(=S)NC(=O)c4cccc(Cl)c4)c(C)c3)c2cc1OC` [Example 1100, N-(3-Chlorobenzoyl)-N′-{4-[(6,7-dimethoxy-4-quinolyl)oxy]-2-methylphenyl}thiourea] was tested, and the inhibition at 1 µM was 18%. In the case of `COc1cc2ncnc(Oc3ccc(NC(=S)NC(=O)c4ccc(C)cc4)cc3)c2cc1OC` [Example 984, N-{4-[(6,7-Dimethoxy-4-quinazolinyl)oxy]phenyl}-N′-(4-methylbenzoyl)thiourea], the inhibition at 1 µM is reported as 30%. With `COc1cc2nccc(Oc3ccc(NC(=S)NC(=O)c4c(Cl)cccc4Cl)cc3F)c2cc1OC` [Example 1112, N-(2,6-Dichlorobenzoyl)-N′-{4-[(6,7-dimethoxy-4-quinolyl)oxy]-3-fluorophenyl}thiourea] the inhibition at 1 µM was 19%. Compound `COc1cc2nccc(Oc3ccc(NC(=S)NC(=O)c4ccc(F)cc4F)cc3F)c2cc1OC` [Example 1013, N-(2,4-Difluorobenzoyl)-N′-{4-[(6,7-dimethoxy-4-quinolyl)oxy]-3-fluorophenyl}thiourea] has an inhibition at 1 µM of 22%. For `COc1cc2ncnc(Oc3ccc(SCCCCOc4cccc(C)c4)cc3)c2cc1OC` [Example 847, 6,7-Dimethoxy-4-(4-{[4-(3-methylphenoxy)butyl]sulfanyl}phenoxy)quinazoline], the inhibition at 1 µM was 9%. For `COc1cc2nccc(Oc3ccc(NC(=S)NC(=O)c4c(Cl)cccc4Cl)cc3)c2cc1OC` [Example 1118, N-(2,6-Dichlorobenzoyl)-N′-{4-[(6,7-dimethoxy-4-quinolyl)oxy]phenyl}thiourea], the inhibition at 1 µM was 0%. `COc1ccc(C(=O)NC(=S)Nc2ccc(Oc3ccnc4cc(OC)c(OC)cc34)cc2F)cc1` [Example 969, N-{4-[(6,7-Dimethoxy-4-quinolyl)oxy]-2-fluorophenyl}-N′-(4-methoxybenzoyl)thiourea] was tested, and the inhibition at 1 µM was 19%. `COc1cc2nccc(Oc3ccc(NC(=S)NC(=O)c4ccsc4)c(F)c3)c2cc1OC` [Example 1036, N-{4-[(6,7-Dimethoxy-4-quinolyl)oxy]-2-fluorophenyl}-N′-(3-thienylcarbonyl)thiourea] was tested, and the inhibition at 1 µM was 29%. In the case of `COc1cc2nccc(Oc3ccc(NC(=S)NC(=O)c4ccccc4)c(C)c3C)c2cc1OC` [Example 1084, N-Benzoyl-N′-{4-[(6,7-dimethoxy-4-quinolyl)oxy]-2,3-dimethylphenyl}thiourea], the inhibition at 1 µM is reported as 30%.

Same assay, conditions: Mo7e, figure within parentheses in −( ) or >1000( ); at 1000 nM
For `C#CCC(CC)OC(=O)Nc1ccc(Oc2ncnc3cc(OC)c(OC)cc23)cc1OC` (stereo not drawn) [Example 502, 1-Ethyl-3-butynyl N-{4-[(6,7-dimethoxy-4-quinazolinyl)oxy]-2-methoxyphenyl}carbamate], the inhibition at 1 µM was 23%.
